{"source": "paper PMC8391236", "about": "“Effect of Pterostilbene, a Natural Derivative of Resveratrol, in the Treatment of Colorectal Cancer through Top1/Tdp1-Mediated DNA Repair Pathway” (Cancers, 2021)", "key": {"Tdp1-over CL187 cells": {"test_system": "Tdp1-over CL187 cells", "assay": "Cell viability of Tdp1-overexpressing cells", "format": "cell-based, Human", "procedure": "CL187 cells were cultured on 6-cm dishes at 37 °C for 24 h. The plasmid (2.5 μg) was diluted with 125 μL serum-free medium Opti-MEM, mixed gently, and incubated at room temperature for 5 min. Lipo 3000 (Invitrogen, Waltham, MA, USA) were diluted with 125 μL serum-free medium Opti-MEM, mixed and incubated for 5 min. Mixed the plasmid and Lipo 3000, incubated at room temperature for 20 min, the mixture was added to CL187 cells, the Tdp1 overexpressed plasmid were transfected into CL187 cells.\nPTE or RE were dissolved in DMSO and diluted with culture medium to 1–100 μM. The final concentration of DMSO was less than 0.1%, and 0.1% DMSO as negative control. CPT, as Top1 inhibitor, was diluted to 0.5 μM [36, 37], and FM, as Tdp1 inhibitor was diluted to 25 μM [38]. Exponentially growing cells were seeded in 96-well plates (5 × 10^3 cells/well) for 12 h. […] Cell viability was determined by CCK-8 (Beyotime Biotechnology, Shanghai, China) assay. Cell viability and inhibition rate were calculated with the following formulae:Cell viability (%) = [OD450 (sample)/OD450 (control)] × 100(1) Inhibition rate (%) = […] − cell viability (%)(2)\nThe drug concentration required for inhibiting cell proliferation by 50% (IC50) was determined by interpolation from dose-response curves."}, "Top1": {"target": "T1, Top1 (Homo sapiens, UniProt P11387)", "T1 construct": "purchased TopoGEN, Buena Vista, CO, USA", "T1 sequence (P11387 1-765)": "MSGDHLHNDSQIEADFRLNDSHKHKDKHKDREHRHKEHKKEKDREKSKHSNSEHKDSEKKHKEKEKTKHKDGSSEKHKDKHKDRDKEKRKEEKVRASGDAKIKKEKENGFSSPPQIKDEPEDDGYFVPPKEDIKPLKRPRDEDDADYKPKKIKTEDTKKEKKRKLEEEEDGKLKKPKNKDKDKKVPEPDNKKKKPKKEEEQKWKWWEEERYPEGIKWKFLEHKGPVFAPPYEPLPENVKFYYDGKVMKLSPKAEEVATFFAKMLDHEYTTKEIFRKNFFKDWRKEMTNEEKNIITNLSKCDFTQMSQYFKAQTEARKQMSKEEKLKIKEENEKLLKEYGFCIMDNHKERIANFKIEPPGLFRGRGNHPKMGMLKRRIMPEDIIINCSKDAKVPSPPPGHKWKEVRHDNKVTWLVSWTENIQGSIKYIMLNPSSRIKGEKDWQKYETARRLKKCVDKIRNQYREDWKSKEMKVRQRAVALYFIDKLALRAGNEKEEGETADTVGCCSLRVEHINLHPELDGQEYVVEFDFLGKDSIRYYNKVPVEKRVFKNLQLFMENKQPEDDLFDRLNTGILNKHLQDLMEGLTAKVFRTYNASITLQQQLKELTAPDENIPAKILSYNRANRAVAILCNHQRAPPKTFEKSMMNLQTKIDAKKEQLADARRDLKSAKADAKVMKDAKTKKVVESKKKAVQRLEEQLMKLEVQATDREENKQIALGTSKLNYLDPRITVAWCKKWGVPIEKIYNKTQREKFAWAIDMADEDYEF", "assay": "Direct Top1 enzyme activity (DNA relaxation) assay", "format": "biochemical", "details": "gel electrophoresis", "procedure": "Different concentrations of the drug solution were prepared. The solvent was used as negative control group, and CPT (50 μM) was used as the positive control group. Each sample included 2 units of Top1 (TopoGEN, Buena Vista, CO, USA) and 250 ng super helical DNA (pHOT-1, TopoGEN, Buena Vista, CO, USA). The samples were incubated for 30 min at 37 °C, and then the reaction was stopped with SDS. After digestion with proteinase K (50 μg/mL, 60 min at 37 °C), samples were separated through electrophoresis (1% agarose gel). The electrophoresis was conducted at 180 V constant pressure for 20 min. The gel was immersed in the dye without EB for 30 min, and the images were collected by gel imaging system (Tanon-1600B, Shanghai, China)."}, "[1]": {"test_system": "orthotopic CL187 xenograft", "assay": "Orthotopic CL187 xenograft model", "format": "in vivo, BABLc/nude mice", "details": "for Tumor Weight: 21 days; for Ki67 labeling rate in tumor tissue: vector control 46.53±3.86%", "procedure": "The mice were anaesthetized with 10% chloral hydrate and fixed on the operating table. After the abdomen of the mice was disinfected with iodine, a small section of the large intestine was squeezed out of the surgical opening. The 0.1 mL (per mouse) CL187 cell suspension (1 × 10^7 /mL) was inoculated into the colon wall of nude mice. After the inoculation, the large intestine was placed into the mouse abdominal cavity. After the wound was sutured, the mice were put into cages until they naturally woke up. After 10 days of inoculation, the animals were randomly divided into 4 groups (6 mice per group). Vector control group was intraperitoneally injected with 5% DMSO and 95% saline containing 30% HP-β-CD (i.p.). The drug dosage was designed according to the results of the previous pharmacokinetic experiment. Experimental Group 1 was intraperitoneal injected (i.p.) with PTE 100 mg/kg, and experiment Group 2 was intragastric administrated (i.g.) with PTE 500 mg/kg, once a day. The bioavailability of PTE was the same in the animals in the above regimens. Positive control group was injected with irinotecan, 20 mg/kg, twice a week. During the experiment, the changes of body weight of nude mice were recorded. After 21 days, the nude mice were sacrificed, the tumor blocks were removed surgically, weighed, and recorded.\nTumor and organ tissues were paraffin-embedded and sectioned into […] after being fixed in 4% of paraformaldehyde solution for 24 h. The sections were deparaffinized and rehydrated before detection. For histological observation, tumor sections were stained with hematoxylin and eosin (HE), and then observed by an inverted microscopy (Olympus, Japan).\nFor immunohistochemistry analysis, the sections were treated with 3% hydrogen peroxide for 10 min to block endogenous peroxidase, and then incubated with Ki67 primary antibody for overnight at 4 °C. Subsequently, the sections were treated with secondary antibody at room temperature for 20 min. After being washed with PBS, the sections were incubated with DAB chromogenic solution for 10 min, followed by rewashing in PBS. The sections were counterstained with hematoxylin after DAB coloration. The antibody specificity was confirmed by negative control without primary antibody treatment. Immunopositive areas were observed by an inverted microscope (Olympus, Japan)."}}, "data": [{"smiles": "COc1cc(/C=C/c2ccc(O)cc2)cc(OC)c1", "note": "[PTE, 3,5-dimethoxy-4′-hydroxy-trans-stilbene]", "values": [{"measurement": "IC50", "setting": "Tdp1-over CL187 cells; Homo sapiens, 24 h, Tdp1-over CL187, 24 h", "result": "63 ± 13.6", "unit": "µM"}, {"measurement": "IC50", "setting": "Tdp1-over CL187 cells; Homo sapiens, 36 h, Tdp1-over CL187, 36 h", "result": "41.1 ± 7.22", "unit": "µM"}, {"measurement": "IC50", "setting": "Tdp1-over CL187 cells; Homo sapiens, 48 h, Tdp1-over CL187, 48 h", "result": "20.3 ± 3.13", "unit": "µM"}, {"measurement": "IC50", "setting": "Tdp1-over CL187 cells; Homo sapiens, 72 h, Tdp1-over CL187, 72 h", "result": "19.1 ± 4.08", "unit": "µM"}, {"measurement": "IC50", "setting": "Tdp1-over CL187 cells; Tdp1-over CL187, 72 h", "result": "~20", "unit": "µM"}, {"measurement": "inhibition of Top1 enzyme activity (SC DNA relaxation)", "setting": "Top1; 30 min incubation, CPT at 50 uM", "result": "had the ability to inhibit Top1 enzyme activity in a dose-dependent manner"}, {"measurement": "concentration exhibiting the same inhibitory effect on Top1 enzyme activity", "setting": "Top1; relaxation of supercoiled pHOT-1 DNA, 30 min", "result": 20, "unit": "µM"}, {"measurement": "Tumor Weight", "setting": "[1]; 100 mg/kg-i.p. once a day", "result": "0.51 ± 0.12", "unit": "g"}, {"measurement": "Ki67 labeling rate in tumor tissue", "setting": "[1]; 100 mg/kg-i.p.", "result": "4.89 ± 1.82", "unit": "%"}, {"measurement": "Tumor Weight", "setting": "[1]; 500 mg/kg-i.g. once a day", "result": "0.60 ± 0.06", "unit": "g"}, {"measurement": "Ki67 labeling rate in tumor tissue", "setting": "[1]; 500 mg/kg-i.g.", "result": "12.03 ± 3.40", "unit": "%"}]}]}
